We go through 1 compound from US10278873B2, “Absorbent article having a domed section and method of manufacturing same” (UNICHARM CORPORATION, priority 2011, dated 2019).

SMILES strings stand for the structures.

A short description of this assay: Surface tension of blood containing blood modifying agent, pendant drop method (Example 7). The note with it: 0.10 mass % in sheep defibrinated blood; 35° C. As for the experimental part: The surface tension of blood containing a blood modifying agent was measured by the pendant drop method, using a Drop Master500 contact angle meter by Kyowa Interface Science Co., Ltd. The surface tension was measured after adding a prescribed amount of blood modifying agent to sheep defibrinated blood, and thoroughly shaking.
The measurement was accomplished automatically with a device, and the […] γ was determined by the following formula (see FIG. 98). γ=g×ρ×(de)^2×1/H
The density ρ was measured at the temperatures listed in Table 5, according to JIS K 2249-1995, “Density test methods and density/mass/volume conversion tables”, “5. Vibrating density test method”.
The measurement was accomplished using a DA-505 by Kyoto Electronics Co., Ltd.

With `CCCCCCCCCCCCOC(=O)CCCCCCCCCCC` [No. 2-18, Ester of dodecanoic acid (C12) and dodecyl alcohol (C12)], the “Surface tension (mN/m)” value is on record as 58.8 mN/m.
